From publication PMC5538626, “Structural and functional analysis of the GABARAP interaction motif (GIM)” (EMBO Reports, 2017) come the findings set out here.

Ends that are not written are not given here.

Assay [1] has as its system endogenous PLEKHM1:GABARAP complex. Description: Peptide competition in immunoprecipitation of endogenous PLEKHM1. The settings on record: Plekhm1 +/+ MEF lysate, 50 μM peptide, cells treated 4 h KU-0063794 (10 μM) + chloroquine (20 μM); Fig 2D.
Assay [2] concerns the target T1, GABARAP-L2 (Homo sapiens, UniProt P60520).
T1 construct: modified Ub-leader (ubiquitin fusion leader) (N); made in house; host or cells: E. coli NEB T7 Express
Description: ITC titration of PLEKHM1-LIR peptide into GABARAP-L2. Particulars: 25°C, pH 7.0. It counts as binding. The procedure:
(§1) The genes for the truncated LC3A^2–121, LC3C^8–125, GABARAP^2–117 and GABARAP‐L1^2–117 proteins were cloned into pET30ΔSE vector between the BamHI and XhoI sites using previously established protocols 38. The chimeric constructs of the PLEKHM1‐LIR attached to the LC3A, GABARAP and GABARAP‐L1 proteins were prepared by inserting the oligonucleotide sequence corresponding to the PLEKHM1‐LIR peptide (P^629[…]^638) and glycine–serine linker into the BamHI site of the pET30ΔSE vector, placing the PLEKHM1‐LIR at the N‐terminal of the mature chimeric protein (similar to 31, 38). For the expression of human LC3 and GABARAP proteins for ITC and NMR experiments, plasmids with appropriate modified Ub‐leaders in pET vectors were used 39. Gene, encoding PLEKHM1‐LIR peptide, was ordered as synthetic oligonucleotides (Eurofins Genomics GmbH) and cloned into the pET39_Ub63_ vector 39 by NcoI–BamHI restriction sites. After TEV cleavage, the resulting peptide has the amino acid sequence GAMG‐P^629[…]^642, where the first four residues (GAMG) are the cloning artefact.
(§2) The chimeric constructs were expressed as a His‐tag fusion protein in E. coli BL21(DE3) cells. The cells were induced with 0.3 mM IPTG at OD600 0.6 for 16 h at 26°C. The cell pellets were lysed using mechanical sonication in lysis buffer (20 mM Tris–HCl pH 9.0, 100 mM NaCl, 10 mM imidazole, supplemented with 0.1% Triton X‐100). The proteins were purified using Ni‐NTA beads (GE Healthcare) and the His‐tag was cleaved using thrombin (Invitrogen) at room temperature for 16 h. The last step was gel filtration chromatography using a Superdex S200/300 GL column (GE Healthcare). The proteins were concentrated using spin concentrators (Vivaspin). For ITC and NMR studies, the non‐labelled and stable isotopes labelled LC3 and GABARAP proteins were obtained based on the protocols described elsewhere 30, 39. Here, E. coli NEB T7 Express culture transformed with corresponding plasmids were grown till OD600 nm = 1.0 and protein expression was induced with 0.2 mM IPTG. The cultures were incubated at 25°C for 8–12 h before cell harvesting. Isolation and purification procedures were similar to those reported in Ref. 22, 40. Before experiments, all proteins and peptides were equilibrated with a buffer containing 50 mM Na2HPO4, 100 mM NaCl at pH 7.0, and supplied with 5 mM protease inhibitor cocktail.
(§3) The protocol for preparation of non‐labelled and ^13C,^15N‐labelled PLEKHM1‐LIR peptide was slightly modified to achieve highest yield of the peptide. The 50 ml M9 culture was inoculated with NEB T7 cell transformed with pET39_Ub63‐PLEKHM1‐LIR plasmid and grown overnight at 37°. The collected cells were resuspended in 2 l of either LB or M9 media contained 1.5 g ^15N‐labelled NH4Cl and 3.0 g of ^13C‐labelled glucose. The cultures were grown at 37° till A(600 nm) = 0.9 and supplied with 1 mM of IPTG to induce Ub63‐PLEKHM1‐LIR overexpression (3 h at 37°). After that cells were harvested by centrifugation, re‐suspended in buffer contained 50 mM Tris–HCl pH = 7.9, 200 mM NaCl, 5% glycerol, 0.1 mg/ml DNase A and 4 mM protease inhibitor cocktail. After cell lysis by French press, debris was removed by centrifugation and clear supernatant was applied onto the column contained Ni‐NTA Sepharose equilibrated with the loading buffer (50 mM Tris–HCl pH = 7.9, 250 mM NaCl, 1% glycerol and 20 mM imidazole). Elution was performed with 400 mM imidazole in the same buffer. An aliquot of pure Ub63‐PLEKHM1‐LIR fractions was further purified by gel filtration on Superdex75 26 × 60 column for control ITC and analytical size exclusion chromatography experiments, remaining fusion protein was processed with the TEV‐protease and PLEKHM1‐LIR peptide was purified to 95% purity by reverse Ni‐NTA chromatography and followed gel filtration on Superdex75 26 × 60 column. Peak maximum of peptide was detected at […] (void volume 115 ml). Pure peptide was concentrated in Amicon concentrators with cut‐off of 3 kDa (> 95% retention). […]

For assay [3], the system named is GABARAP subfamily proteins (GABARAP-L1, GABARAP-L2). In words: NMR titration of 15N-labelled GABARAP proteins with PLEKHM1-LIR peptide. Format: binding, human. The settings on record: 298 K, 0.18 mM 15N-labelled protein, up to two times peptide excess. The procedure:
All NMR experiments were performed at 298 K on Bruker Avance spectrometers operating at proton frequencies of 500, 600 and 700 MHz. Titration experiments were performed with a 0.18 mM ^15N‐labelled LC3 and GABARAP protein samples to which the non‐labelled PLEKHM1‐LIR peptide was added stepwise until four times excess to LC3 proteins or two times excess to the GABARAP proteins. Backbone HN resonances for selected mATG8 proteins in complex with the PLEKHM1‐LIR peptide were assigned using [^15N‐^1H]‐TROSY versions of 3D HNCACB experiment. For assignment of PLEKHM1‐LIR peptide backbone HN resonances in complexes with the LC3 and GABARAP proteins, [^15N‐^1H]‐TROSY versions of 3D HNCACB experiment and hCcconh‐TOCSY experiment were used.

Assay [4] concerns the target T2, LC3C (Homo sapiens, UniProt Q9BXW4).
T2 construct: modified Ub-leader (ubiquitin fusion leader) (N); made in house; host or cells: E. coli NEB T7 Express
In words: ITC titration of PLEKHM1-LIR peptide into LC3C. It counts as binding. Particulars: 25°C, pH 7.0. The procedure: as §1, §2, §3
A general note: Isothermal titration calorimetry measures the heat released or taken up as one component is titrated into another.

The mark [5] stands for this setting: VP-ITC, one-site model, 0.4 mM peptide into 0.020 mM protein, 50 mM Na2HPO4, 100 mM NaCl.

T2 sequence (Q9BXW4 whole entry, the tested form may be a part): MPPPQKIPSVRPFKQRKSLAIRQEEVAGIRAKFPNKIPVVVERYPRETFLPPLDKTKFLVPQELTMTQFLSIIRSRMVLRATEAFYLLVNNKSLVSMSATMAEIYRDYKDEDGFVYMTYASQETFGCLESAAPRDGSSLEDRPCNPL
T1 sequence (P60520 whole entry, the tested form may be a part): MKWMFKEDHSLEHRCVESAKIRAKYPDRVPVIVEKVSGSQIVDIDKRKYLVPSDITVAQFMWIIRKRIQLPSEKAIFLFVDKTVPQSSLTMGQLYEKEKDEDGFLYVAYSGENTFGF

GAMGPQQEDEWVNVQYPD [PLEKHM1‐LIR WT]: the “effect on endogenous PLEKHM1:GABARAP interaction” value in assay [1] is “blocked the interaction”. Moreover, in assay [2] (setting [5]), the ΔH is -25.5 ± 0.42 kJ/mol. In addition, in assay [2], the KA is reported as 1.07 ± 0.03 ×10^6 M^−1, the “N (number of binding sites)” value stood at 1.05 ± 0.01, the ΔG is -34.4 kJ/mol and the ΔS result was “+7.00 cal mol^−1 K^−1”. In addition, the “−T × ΔS” value in assay [2] is -8.74 kJ/mol. For the same sequence, the “exchange behaviour upon titration, GABARAP subfamily” value in assay [3] was “slow exchange”. This sequence gave a ΔH in assay [4] (setting [5]) of -34.7 ± 0.84 kJ/mol. In assay [4], the KA is recorded as 0.29 ± 0.02 ×10^6 M^−1, the “N (number of binding sites)” value turned out to be 0.99 ± 0.02, the ΔG is -31.3 kJ/mol and the ΔS was −2.83 cal mol^−1 K^−1. Further, the “−T × ΔS” value in assay [4] is listed as “+0.84 kcal mol^−1”.
